Source: patent US9340590B2 (priority 2011, dated 2016)
Read-outs that look alike come from different tables or passages of the source. Positions of bridges follow the written chain, without caps; N, C: chain ends. Residues, ends and D or L forms follow the SMILES beside them.

Experiments:
[1] = biological target: hNav1.5 (Homo sapiens, UniProt Q14524); test: cell-based; details: IonWorks Quattro, read-out: IWQ Use Nav1.5
[2] = biological target: hNav1.3 (Homo sapiens, UniProt Q9NY46); test: cell-based; details: IonWorks Quattro, read-out: IWQ Use Nav1.3
Chain of hNav1.3 (Q9NY46 whole entry, looked up): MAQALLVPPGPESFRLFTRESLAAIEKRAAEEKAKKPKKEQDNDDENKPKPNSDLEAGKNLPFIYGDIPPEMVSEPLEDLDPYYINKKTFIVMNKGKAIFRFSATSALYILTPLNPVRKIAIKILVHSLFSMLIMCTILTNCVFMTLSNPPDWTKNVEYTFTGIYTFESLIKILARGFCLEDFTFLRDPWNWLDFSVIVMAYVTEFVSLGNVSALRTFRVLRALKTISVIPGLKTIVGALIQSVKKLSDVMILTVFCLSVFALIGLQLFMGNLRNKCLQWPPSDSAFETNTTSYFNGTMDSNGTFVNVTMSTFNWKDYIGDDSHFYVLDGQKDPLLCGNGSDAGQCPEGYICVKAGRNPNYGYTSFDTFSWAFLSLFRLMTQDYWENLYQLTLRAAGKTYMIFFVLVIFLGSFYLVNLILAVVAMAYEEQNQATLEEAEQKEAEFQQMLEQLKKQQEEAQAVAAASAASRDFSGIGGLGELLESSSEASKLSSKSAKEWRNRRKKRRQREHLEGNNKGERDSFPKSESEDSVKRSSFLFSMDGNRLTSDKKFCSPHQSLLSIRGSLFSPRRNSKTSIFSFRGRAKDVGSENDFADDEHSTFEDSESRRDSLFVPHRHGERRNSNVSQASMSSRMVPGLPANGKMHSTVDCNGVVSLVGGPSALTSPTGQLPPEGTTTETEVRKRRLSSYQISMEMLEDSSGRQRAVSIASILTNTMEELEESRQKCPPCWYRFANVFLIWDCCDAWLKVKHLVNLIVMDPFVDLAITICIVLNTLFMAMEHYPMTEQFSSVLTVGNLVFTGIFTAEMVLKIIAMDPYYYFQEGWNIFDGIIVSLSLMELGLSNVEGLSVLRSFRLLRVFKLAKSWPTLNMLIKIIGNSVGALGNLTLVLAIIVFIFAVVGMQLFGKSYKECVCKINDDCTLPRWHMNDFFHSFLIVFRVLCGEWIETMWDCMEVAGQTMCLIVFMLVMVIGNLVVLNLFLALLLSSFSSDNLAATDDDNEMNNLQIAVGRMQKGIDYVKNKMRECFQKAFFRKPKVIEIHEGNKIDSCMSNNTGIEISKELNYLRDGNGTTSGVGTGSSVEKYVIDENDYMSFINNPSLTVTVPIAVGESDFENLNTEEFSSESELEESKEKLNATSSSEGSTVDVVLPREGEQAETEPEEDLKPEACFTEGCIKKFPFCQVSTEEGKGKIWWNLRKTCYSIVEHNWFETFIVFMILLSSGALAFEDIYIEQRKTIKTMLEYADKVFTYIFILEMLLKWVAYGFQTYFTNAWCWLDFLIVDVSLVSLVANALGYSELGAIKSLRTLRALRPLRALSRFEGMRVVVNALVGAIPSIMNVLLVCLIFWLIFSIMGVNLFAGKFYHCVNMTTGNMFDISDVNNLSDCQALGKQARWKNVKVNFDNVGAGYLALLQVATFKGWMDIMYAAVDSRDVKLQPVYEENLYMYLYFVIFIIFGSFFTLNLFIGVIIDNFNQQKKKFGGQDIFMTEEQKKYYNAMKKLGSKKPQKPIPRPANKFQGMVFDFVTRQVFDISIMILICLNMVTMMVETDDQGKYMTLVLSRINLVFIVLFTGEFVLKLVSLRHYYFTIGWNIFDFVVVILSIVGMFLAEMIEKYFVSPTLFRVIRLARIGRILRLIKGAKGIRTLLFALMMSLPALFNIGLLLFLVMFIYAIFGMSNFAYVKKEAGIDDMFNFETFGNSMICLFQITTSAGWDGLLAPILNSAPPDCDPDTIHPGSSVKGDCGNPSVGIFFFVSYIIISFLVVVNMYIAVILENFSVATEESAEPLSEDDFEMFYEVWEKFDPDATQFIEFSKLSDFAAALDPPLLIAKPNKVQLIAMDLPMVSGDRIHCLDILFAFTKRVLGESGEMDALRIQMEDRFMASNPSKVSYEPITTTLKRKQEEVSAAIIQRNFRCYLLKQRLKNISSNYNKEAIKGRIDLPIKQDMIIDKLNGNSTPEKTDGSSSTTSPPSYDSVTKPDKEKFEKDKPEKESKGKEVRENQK

Chain of hNav1.5 (Q14524 whole entry, looked up): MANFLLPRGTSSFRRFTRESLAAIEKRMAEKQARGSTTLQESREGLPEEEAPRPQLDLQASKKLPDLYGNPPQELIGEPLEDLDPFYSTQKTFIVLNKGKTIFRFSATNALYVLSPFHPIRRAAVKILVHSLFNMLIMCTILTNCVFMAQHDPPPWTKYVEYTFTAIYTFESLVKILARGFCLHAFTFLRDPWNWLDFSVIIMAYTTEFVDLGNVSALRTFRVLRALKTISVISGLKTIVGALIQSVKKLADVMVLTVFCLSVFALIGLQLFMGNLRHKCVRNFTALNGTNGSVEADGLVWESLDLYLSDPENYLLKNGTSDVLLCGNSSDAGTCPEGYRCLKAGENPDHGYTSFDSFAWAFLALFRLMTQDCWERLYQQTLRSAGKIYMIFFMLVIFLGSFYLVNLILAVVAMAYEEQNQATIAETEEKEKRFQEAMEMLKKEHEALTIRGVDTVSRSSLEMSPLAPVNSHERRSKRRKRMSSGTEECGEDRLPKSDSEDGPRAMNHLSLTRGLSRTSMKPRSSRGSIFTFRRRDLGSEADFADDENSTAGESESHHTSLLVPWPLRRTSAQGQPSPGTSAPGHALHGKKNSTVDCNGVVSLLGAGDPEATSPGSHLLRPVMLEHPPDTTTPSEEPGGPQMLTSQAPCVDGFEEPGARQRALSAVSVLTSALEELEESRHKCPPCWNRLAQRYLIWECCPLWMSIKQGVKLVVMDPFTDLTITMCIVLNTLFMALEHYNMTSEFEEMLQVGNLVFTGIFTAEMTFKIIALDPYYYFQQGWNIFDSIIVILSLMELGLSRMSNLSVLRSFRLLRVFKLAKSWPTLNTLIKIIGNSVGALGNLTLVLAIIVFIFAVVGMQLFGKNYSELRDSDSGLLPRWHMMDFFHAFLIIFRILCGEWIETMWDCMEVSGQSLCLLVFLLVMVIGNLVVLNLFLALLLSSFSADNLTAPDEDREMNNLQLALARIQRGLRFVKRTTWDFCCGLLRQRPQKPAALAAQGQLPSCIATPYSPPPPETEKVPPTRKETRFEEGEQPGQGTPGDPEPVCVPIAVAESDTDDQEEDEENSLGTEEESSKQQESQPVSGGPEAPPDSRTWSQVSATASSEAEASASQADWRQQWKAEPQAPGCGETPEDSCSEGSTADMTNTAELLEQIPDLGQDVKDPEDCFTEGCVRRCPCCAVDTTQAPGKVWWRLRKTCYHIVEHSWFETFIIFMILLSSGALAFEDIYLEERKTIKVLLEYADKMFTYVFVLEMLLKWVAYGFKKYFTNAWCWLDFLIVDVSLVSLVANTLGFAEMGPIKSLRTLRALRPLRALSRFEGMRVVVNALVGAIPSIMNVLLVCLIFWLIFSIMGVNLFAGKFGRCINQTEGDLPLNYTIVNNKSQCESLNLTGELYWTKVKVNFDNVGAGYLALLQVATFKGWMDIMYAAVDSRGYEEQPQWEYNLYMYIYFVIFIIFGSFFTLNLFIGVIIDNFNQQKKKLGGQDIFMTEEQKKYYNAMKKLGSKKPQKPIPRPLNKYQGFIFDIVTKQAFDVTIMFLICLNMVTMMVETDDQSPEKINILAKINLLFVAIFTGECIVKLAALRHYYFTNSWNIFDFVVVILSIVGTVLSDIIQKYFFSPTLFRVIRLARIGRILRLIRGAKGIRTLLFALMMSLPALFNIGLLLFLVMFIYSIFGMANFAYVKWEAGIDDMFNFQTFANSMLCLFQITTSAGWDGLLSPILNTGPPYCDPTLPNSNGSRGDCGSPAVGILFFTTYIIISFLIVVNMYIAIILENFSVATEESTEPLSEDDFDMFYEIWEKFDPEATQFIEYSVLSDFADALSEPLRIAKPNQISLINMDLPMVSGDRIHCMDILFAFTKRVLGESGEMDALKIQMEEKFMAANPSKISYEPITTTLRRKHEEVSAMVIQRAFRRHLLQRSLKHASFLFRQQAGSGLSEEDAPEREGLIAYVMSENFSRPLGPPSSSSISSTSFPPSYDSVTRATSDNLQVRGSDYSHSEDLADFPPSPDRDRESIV

Row | Compound | IC50 ([1]; Use) [µM] | IC50 ([2]; Use) [µM] | further results
1 | CC[C@H](C)[C@@H]1NC(=O)[C@@H]2CSSC[C@@H]3NC(=O)[C@H](CCC(=O)O)NC(=O)[C@H](CC(C)C)NC(=O)[C@H](CC(N)=O)NC(=O)[C@@H]4CCCN4C(=O)[C@H](CCCNC(=N)N)NC(=O)[C@H](CSSC[C@H](NC(=O)[C@@H](N)CC(=O)O)C(=O)N[C@@H](CC(C)C)C(=O)NCC(=O)N[C@@H](Cc4ccccc4)C(=O)N[C@@H](CCSC)C(=O)N[C@@H](CCCNC(=N)N)C(=O)N[C@@H](CCCCN)C(=O)N2)NC(=O)[C@H](CSSC[C@@H](C(=O)N[C@@H](CCCCN)C(=O)N[C@@H](Cc2ccc(O)cc2)C(=O)N[C@H](C(=O)N[C@@H](Cc2ccccc2)C(N)=O)C(C)C)NC(=O)[C@H](Cc2c[nH]c4ccccc24)NC(=O)[C@H](CCCCN)NC(=O)[C@H](Cc2cnc[nH]2)NC(=O)[C@H]([C@@H](C)O)NC(=O)[C@H](CCCNC(=N)N)NC(=O)[C@H](CO)NC3=O)NC(=O)[C@H](CCCCN)NC(=O)[C@H](CC(=O)O)NC(=O)[C@H](CC(N)=O)NC(=O)[C@H](CC(=O)O)NC(=O)[C@@H]2CCCN2C1=O [compound 102] (H-DCLGFMRKCIPDNDKCCRPNLECSRTHKWCKYVF-NH2; disulfide 2-17, 9-23, 16-30) | 20.8 | 2.14 | –
2 | CC[C@H](C)[C@@H]1NC(=O)[C@@H]2CSSC[C@@H]3NC(=O)[C@H](C(C)C)NC(=O)[C@H](CC(C)C)NC(=O)[C@H](CC(N)=O)NC(=O)[C@@H]4CCCN4C(=O)[C@H](CCCNC(=N)N)NC(=O)[C@H](CSSC[C@H](NC(=O)[C@@H](N)CC(=O)O)C(=O)N[C@@H](CC(C)C)C(=O)NCC(=O)N[C@@H](Cc4ccccc4)C(=O)N[C@@H](CCSC)C(=O)N[C@@H](CCCNC(=N)N)C(=O)N[C@@H](CCCCN)C(=O)N2)NC(=O)[C@H](CSSC[C@@H](C(=O)N[C@@H](CCCCN)C(=O)N[C@@H](Cc2ccc(O)cc2)C(=O)N[C@H](C(=O)N[C@@H](Cc2ccccc2)C(=O)O)C(C)C)NC(=O)[C@H](Cc2c[nH]c4ccccc24)NC(=O)[C@H](CCCCN)NC(=O)[C@H](Cc2cnc[nH]2)NC(=O)[C@H]([C@@H](C)O)NC(=O)[C@H](CCCNC(=N)N)NC(=O)[C@H](CO)NC3=O)NC(=O)[C@H](CCCCN)NC(=O)[C@H](CC(=O)O)NC(=O)[C@H](CC(N)=O)NC(=O)[C@H](CC(=O)O)NC(=O)[C@@H]2CCCN2C1=O [compound 107] | – | – | IC50 ([1]; use-dependent, […]): 9.44 µM; IC50 ([2]; use-dependent, […]): 0.54 µM
3 | CC[C@H](C)[C@@H]1NC(=O)[C@@H]2CSSC[C@@H]3NC(=O)[C@H](C(C)C)NC(=O)[C@H](CC(C)C)NC(=O)[C@H](CC(N)=O)NC(=O)[C@@H]4CCCN4C(=O)[C@H](CCCNC(=N)N)NC(=O)[C@H](CSSC[C@H](NC(=O)[C@@H](N)CC(=O)O)C(=O)N[C@@H](CC(C)C)C(=O)NCC(=O)N[C@@H](Cc4ccccc4)C(=O)N[C@@H](CCSC)C(=O)N[C@@H](CCCNC(=N)N)C(=O)N[C@@H](CCCCN)C(=O)N2)NC(=O)[C@H](CSSC[C@@H](C(=O)N[C@@H](CCCCN)C(=O)N[C@@H](Cc2ccc(O)cc2)C(=O)N[C@H](C(=O)N[C@@H](Cc2ccccc2)C(N)=O)C(C)C)NC(=O)[C@H](Cc2ccc(O)cc2)NC(=O)[C@H](CCCCN)NC(=O)[C@H](Cc2c[nH]cn2)NC(=O)[C@H]([C@@H](C)O)NC(=O)[C@H](CCCNC(=N)N)NC(=O)[C@H](CO)NC3=O)NC(=O)[C@H](CCCCN)NC(=O)[C@H](CC(=O)O)NC(=O)[C@H](CC(N)=O)NC(=O)[C@H](CC(=O)O)NC(=O)[C@@H]2CCCN2C1=O [compound 113] (H-DCLGFMRKCIPDNDKCCRPNLVCSRTHKYCKYVF-NH2; disulfide 2-17, 9-23, 16-30) | – | – | IC50 ([1]; Table 24, use, […]): 9.49 µM; IC50 ([2]; Table 24, use, […]): 4.03 µM
4 | CC[C@H](C)[C@@H]1NC(=O)[C@@H]2CSSC[C@@H]3NC(=O)[C@H](C(C)C)NC(=O)[C@H](CC(C)C)NC(=O)[C@H](CC(N)=O)NC(=O)[C@@H]4CCCN4C(=O)[C@H](CCCNC(=N)N)NC(=O)[C@H](CSSC[C@H](NC(=O)[C@@H](N)CC(=O)O)C(=O)N[C@@H](CC(C)C)C(=O)NCC(=O)N[C@@H](Cc4ccccc4)C(=O)N[C@@H](CCSC)C(=O)N[C@@H](CCCNC(=N)N)C(=O)N[C@@H](CCCCN)C(=O)N2)NC(=O)[C@H](CSSC[C@@H](C(=O)N[C@@H](CCCCN)C(=O)N[C@@H](Cc2ccc(O)cc2)C(=O)N[C@H](C(=O)N[C@@H](Cc2ccccc2)C(N)=O)C(C)C)NC(=O)[C@H](Cc2c[nH]c4ccccc24)NC(=O)[C@H](CCCCN)NC(=O)[C@H](Cc2cnc[nH]2)NC(=O)[C@H]([C@@H](C)O)NC(=O)[C@H](CCCNC(=N)N)NC(=O)[C@H](C)NC3=O)NC(=O)[C@H](CCCCN)NC(=O)[C@H](CC(=O)O)NC(=O)[C@H](CC(N)=O)NC(=O)[C@H](CC(=O)O)NC(=O)[C@@H]2CCCN2C1=O [compound 142] (H-DCLGFMRKCIPDNDKCCRPNLVCARTHKWCKYVF-NH2; disulfide 2-17, 9-23, 16-30) | 8.2 | 0.25 | –
5 | CC[C@H](C)[C@@H]1NC(=O)[C@@H]2CSSC[C@@H]3NC(=O)[C@H](C(C)C)NC(=O)[C@H](CC(C)C)NC(=O)[C@H](CC(N)=O)NC(=O)[C@@H]4CCCN4C(=O)[C@H](CCC(=O)O)NC(=O)[C@H](CSSC[C@H](NC(=O)[C@@H](N)CC(=O)O)C(=O)N[C@@H](CC(C)C)C(=O)NCC(=O)N[C@@H](Cc4ccccc4)C(=O)N[C@@H](CCSC)C(=O)N[C@@H](CCCNC(=N)N)C(=O)N[C@@H](CCCCN)C(=O)N2)NC(=O)[C@H](CSSC[C@@H](C(=O)N[C@@H](CCCCN)C(=O)N[C@@H](Cc2ccc(O)cc2)C(=O)N[C@H](C(=O)N[C@@H](Cc2ccccc2)C(N)=O)C(C)C)NC(=O)[C@H](Cc2c[nH]c4ccccc24)NC(=O)[C@H](CCCCN)NC(=O)[C@H](Cc2cnc[nH]2)NC(=O)[C@H]([C@@H](C)O)NC(=O)[C@H](CCCNC(=N)N)NC(=O)[C@H](CO)NC3=O)NC(=O)[C@H](CCCCN)NC(=O)[C@H](CC(=O)O)NC(=O)[C@H](CC(N)=O)NC(=O)[C@H](CC(=O)O)NC(=O)[C@@H]2CCCN2C1=O [compound 148] (H-DCLGFMRKCIPDNDKCCEPNLVCSRTHKWCKYVF-NH2; disulfide 2-17, 9-23, 16-30) | 14.6 | 0.21 | –
6 | CC[C@H](C)[C@@H]1NC(=O)[C@@H]2CSSC[C@@H]3NC(=O)[C@H](C(C)C)NC(=O)[C@H](CC(C)C)NC(=O)[C@H](CC(N)=O)NC(=O)[C@H](CCCNC(=N)N)NC(=O)[C@H](CCCNC(=N)N)NC(=O)[C@H](CSSC[C@H](NC(=O)[C@@H](N)CC(=O)O)C(=O)N[C@@H](CC(C)C)C(=O)NCC(=O)N[C@@H](Cc4ccccc4)C(=O)N[C@@H](CCSC)C(=O)N[C@@H](CCCNC(=N)N)C(=O)N[C@@H](CCCCN)C(=O)N2)NC(=O)[C@H](CSSC[C@@H](C(=O)N[C@@H](CCCCN)C(=O)N[C@@H](Cc2ccc(O)cc2)C(=O)N[C@H](C(=O)N[C@@H](Cc2ccccc2)C(N)=O)C(C)C)NC(=O)[C@H](Cc2c[nH]c4ccccc24)NC(=O)[C@H](CCCCN)NC(=O)[C@H](Cc2cnc[nH]2)NC(=O)[C@H]([C@@H](C)O)NC(=O)[C@H](CCCNC(=N)N)NC(=O)[C@H](CO)NC3=O)NC(=O)[C@H](CCCCN)NC(=O)[C@H](CC(=O)O)NC(=O)[C@H](CC(N)=O)NC(=O)[C@H](CC(=O)O)NC(=O)[C@@H]2CCCN2C1=O [compound 157] (H-DCLGFMRKCIPDNDKCCRRNLVCSRTHKWCKYVF-NH2; disulfide 2-17, 9-23, 16-30) | 6.16 | 0.06 | –
